The GI50 is the concentration giving 50% growth inhibition.

Each structure is given as a SMILES string.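 Step 1: Grow cells in 96-well plates. Step 2: Expose to compound for 48 hours at 5 concentrations. Step 3: Interpolate endpoints linearly; if unreached, use highest concentration. The concentration for 50% growth inhibition is given as GI50.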 The source made the active and inactive calls. Cut-off read from the data, not from the text of the source: active = GI50 up to about 1.1 µM and inactive = higher. A value given as a limit tells only on which side of the number the result lay.

Test systems include SF-295; SK-MEL-28; NCI-H522; MDA-MB-435; RPMI-8226; HOP-92; SF-539; Hs-578T; MCF7; IGROV-1; CCRF-CEM; A498; OVCAR-5; MDA-MB-231; SK-MEL-5; TK-10; NCI-H460; OVCAR-8; DU-145; K562.
What all share (assay): DTP human tumour cell line panel, 48 h

Turning to `CCNCCCCNCCCCNCCCCNCCCCNCC`, the GI50 was 42 µM (inactive) with SF-295; 9.14 µM (inactive) with SK-MEL-28; > 100 µM (inactive) in the assay on NCI-H522; 8.97 µM (inactive) with MDA-MB-435; 53 µM (inactive) with RPMI-8226; 30.8 µM (inactive) in the assay on HOP-92. For the same compound, the GI50 in the assay on SF-539 is 70.1 µM (inactive); in the assay on Hs-578T, 2.84 µM (inactive); with MCF7, > 100 µM (inactive); with IGROV-1, 41.9 µM (inactive); with CCRF-CEM, 63.5 µM (inactive); in the assay with A498 it was > 94.2 µM (inactive). Further, the GI50 in the assay with OVCAR-5 was 52.5 µM (inactive); in the assay on MDA-MB-231, > 100 µM (inactive); with SK-MEL-5 it was 53.5 µM (inactive); with TK-10 it was 29.7 µM (inactive); in the assay with NCI-H460, 32 µM (inactive); with OVCAR-8, > 100 µM (inactive). For the same compound, the values for the GI50 in the assay with DU-145 and in the assay with K562 were > 100 µM (inactive) and 57 µM (inactive), respectively.

As for `S=c1[nH]nc(Cc2ccccc2)c(=S)[nH]1`, the GI50 with SF-295 is > 59.3 µM (inactive); with SK-MEL-28 it was > 68.2 µM (inactive); in the assay on NCI-H522, > 51.1 µM (inactive); in the assay with MDA-MB-435 it was 63 µM (inactive); with RPMI-8226 it was 50.8 µM (inactive); in the assay on HOP-92 it was 23.3 µM (inactive). The GI50 with SF-539 was > 76.4 µM (inactive); in the assay with Hs-578T it was 33 µM (inactive); with MCF7, 55.8 µM (inactive); in the assay with IGROV-1, > 53.1 µM (inactive); in the assay with CCRF-CEM, > 100 µM (inactive); with A498, > 42.9 µM (inactive). Moreover, the GI50 is > 50.2 µM (inactive) in the assay on OVCAR-5; 26.1 µM (inactive) with MDA-MB-231; 46.7 µM (inactive) in the assay with SK-MEL-5; > 56 µM (inactive) in the assay with TK-10; > 52.5 µM (inactive) with NCI-H460; > 61.2 µM (inactive) with OVCAR-8. Moreover, the values for the GI50 with DU-145 and with K562 were 61.9 µM (inactive) and 61.1 µM (inactive), respectively.

For `O=c1cccc(C2CC(CO)C3CCCCN3C2)[nH]1` (stereo not given), the GI50 in the assay with SF-295, in the assay with SK-MEL-28, in the assay with NCI-H522, with MDA-MB-435, with RPMI-8226 and in the assay on HOP-92 was > 100 µM (inactive) in each case. Also, the GI50 with SF-539, in the assay with Hs-578T, with MCF7, in the assay on IGROV-1, in the assay with CCRF-CEM and with A498 was > 100 µM (inactive) each time. For the same compound, the GI50 with OVCAR-5, in the assay with MDA-MB-231, in the assay on SK-MEL-5, in the assay with TK-10, in the assay with NCI-H460 and in the assay with OVCAR-8 was > 100 µM (inactive) in each case. For the same compound, the GI50 in the assay on DU-145 and in the assay with K562 was > 100 µM (inactive) in each case.

As to `CC(=O)NC1=C(Sc2ccc(Cl)cc2)C(=O)c2ccccc2C1=O`, the GI50 in the assay on SF-295 is 8.81 µM (inactive); with SK-MEL-28, 2.7 µM (inactive); in the assay on NCI-H522, 0.272 µM (active); in the assay with MDA-MB-435, 2.08 µM (inactive); with RPMI-8226, 1.31 µM (inactive); in the assay on HOP-92, 1.82 µM (inactive). Further, the GI50 with SF-539 is 2.15 µM (inactive); in the assay with Hs-578T, 10.4 µM (inactive); with MCF7, 2.08 µM (inactive); in the assay on IGROV-1, 4.84 µM (inactive); with CCRF-CEM, 1.06 µM (active); with A498, 3.5 µM (inactive). The GI50 was 11.7 µM (inactive) in the assay with OVCAR-5; 3.04 µM (inactive) in the assay on MDA-MB-231; 1.85 µM (inactive) in the assay on SK-MEL-5; 4.42 µM (inactive) in the assay with TK-10; 8.34 µM (inactive) in the assay on NCI-H460; 2.04 µM (inactive) with OVCAR-8. For the same compound, the GI50 in the assay on DU-145 was 14.6 µM (inactive); in the assay with K562, 2.56 µM (inactive).

`COc1cc(/C=C2\Sc3scc(-c4cccc([N+](=O)[O-])c4)[n+]3C2=O)cc(OC)c1OC`: the GI50 in the assay on SF-295 was 16.3 µM (inactive); in the assay with SK-MEL-28, 16.1 µM (inactive); in the assay with NCI-H522, 4.67 µM (inactive); in the assay with MDA-MB-435, 12.6 µM (inactive); in the assay on RPMI-8226, 4.06 µM (inactive); in the assay with HOP-92 it was 11.3 µM (inactive). For the same compound, the GI50 in the assay on SF-539 is 8.89 µM (inactive); with Hs-578T, 10.8 µM (inactive); in the assay on MCF7 it was 4.15 µM (inactive); in the assay on IGROV-1, 14 µM (inactive); in the assay on CCRF-CEM it was 44.9 µM (inactive); in the assay on A498, 47 µM (inactive). Besides, the GI50 was 20.8 µM (inactive) in the assay with OVCAR-5; 7.29 µM (inactive) with MDA-MB-231; 6.1 µM (inactive) in the assay with SK-MEL-5; 10.7 µM (inactive) with TK-10; 11 µM (inactive) with NCI-H460; 15.5 µM (inactive) with OVCAR-8. Besides, the GI50 is 15.2 µM (inactive) in the assay on DU-145 and 4.54 µM (inactive) with K562.

With `Cc1cccc2c1C(=O)C(C1OC(=O)c3ccccc31)C2` (stereo not given), the GI50 with SF-295 was > 100 µM (inactive); with SK-MEL-28 it was > 100 µM (inactive); with NCI-H522 it was > 100 µM (inactive); in the assay on MDA-MB-435, > 100 µM (inactive); in the assay on RPMI-8226, 92.5 µM (inactive); with HOP-92, > 100 µM (inactive). Further, the GI50 with SF-539 was > 100 µM (inactive); in the assay on Hs-578T it was 43.9 µM (inactive); in the assay with MCF7, > 100 µM (inactive); in the assay on IGROV-1, > 100 µM (inactive); with CCRF-CEM, > 100 µM (inactive); in the assay on A498 it was > 100 µM (inactive). For the same compound, the GI50 was > 100 µM (inactive) with OVCAR-5; > 100 µM (inactive) with MDA-MB-231; 95.5 µM (inactive) with SK-MEL-5; > 100 µM (inactive) in the assay with TK-10; > 100 µM (inactive) in the assay with NCI-H460; > 100 µM (inactive) with OVCAR-8. For the same compound, the GI50 in the assay with DU-145 and in the assay with K562 was > 100 µM (inactive) in each case.

Take `CN(CCc1ccc(Br)cc1)CCN1CCCCC1`: the GI50 with SF-295 was 25.1 µM (inactive); in the assay with SK-MEL-28, 20.4 µM (inactive); with NCI-H522, 21.6 µM (inactive); with MDA-MB-435, 26.4 µM (inactive); with RPMI-8226 it was 62.5 µM (inactive); with HOP-92 it was 17.7 µM (inactive). In addition, the GI50 with SF-539 is 27.3 µM (inactive); in the assay on Hs-578T it was 19.7 µM (inactive); with MCF7, 21.7 µM (inactive); in the assay with IGROV-1 it was 36.4 µM (inactive); with CCRF-CEM, 16.4 µM (inactive); with A498 it was 21 µM (inactive). For the same compound, the GI50 in the assay with OVCAR-5 is 41 µM (inactive); with MDA-MB-231, 17.3 µM (inactive); with SK-MEL-5, 14.9 µM (inactive); in the assay on TK-10 it was 71.3 µM (inactive); in the assay with NCI-H460 it was 37.9 µM (inactive); in the assay with OVCAR-8 it was 31.4 µM (inactive). The GI50 was 99.5 µM (inactive) with DU-145 and 15.1 µM (inactive) in the assay on K562.
